Data taken from ChEMBL document CHEMBL1201862, “PubChem BioAssay data set” (2004).
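Exposure lasted 48 hours, with cells grown in 96-well plates and compounds tested at five concentrations. Abbreviation: GI50, concentration required for 50% inhibition of growth.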 Active and inactive are the calls of the source. No stated cut-off is given here; in the data, active = GI50 up to about 1.1 µM and inactive = higher.

How the values were obtained:
Assay in all cases: NCI anticancer screen, dose series, 48 h
DU-145 = test system: DU-145
RPMI-8226 = test system: RPMI-8226
T47D = test system: T47D
SNB-75 = test system: SNB-75
NCI/ADR-RES = test system: NCI/ADR-RES
NCI-H522 = test system: NCI-H522
LOX IMVI = test system: LOX IMVI
786-0 = test system: 786-0
CCRF-CEM = test system: CCRF-CEM
Malme-3M = test system: Malme-3M
SF-295 = test system: SF-295
SNB-19 = test system: SNB-19
OVCAR-8 = test system: OVCAR-8
CAKI-1 = test system: CAKI-1
NCI-H460 = test system: NCI-H460
TK-10 = test system: TK-10
UO-31 = test system: UO-31
HL-60 = test system: HL-60
HCT-15 = test system: HCT-15
KM12 = test system: KM12

| SMILES | GI50 (DU-145) | GI50 (RPMI-8226) | GI50 (T47D) | GI50 (SNB-75) | GI50 (NCI/ADR-RES) | GI50 (NCI-H522) | GI50 (LOX IMVI) | GI50 (786-0) | GI50 (CCRF-CEM) | GI50 (Malme-3M) | GI50 (SF-295) | GI50 (SNB-19) | GI50 (OVCAR-8) | GI50 (CAKI-1) | GI50 (NCI-H460) | GI50 (TK-10) | GI50 (UO-31) | GI50 (HL-60) | GI50 (HCT-15) | GI50 (KM12) |
| --- | --- | --- | --- | --- | --- | --- | --- | --- | --- | --- | --- | --- | --- | --- | --- | --- | --- | --- | --- | --- |
| CC(=O)N1C(Nc2cccc3nc(C)ccc23)CCN1c1ccccc1 (configuration not stated) | > 10 µM (inactive) | > 10 µM (inactive) | > 10 µM (inactive) | > 10 µM (inactive) | > 10 µM (inactive) | > 10 µM (inactive) | > 10 µM (inactive) | > 10 µM (inactive) | > 10 µM (inactive) | > 10 µM (inactive) | > 10 µM (inactive) | > 10 µM (inactive) | > 10 µM (inactive) | > 10 µM (inactive) | > 10 µM (inactive) | > 10 µM (inactive) | > 10 µM (inactive) | 8.2 µM (inactive) | 7.98 µM | – |
| CNc1ccc(Cl)cc1C(=O)N1CCC[C@H]1CO | > 100 µM (inactive) | > 100 µM (inactive) | > 100 µM (inactive) | 99.3 µM (inactive) | > 100 µM (inactive) | > 100 µM (inactive) | > 100 µM (inactive) | > 100 µM (inactive) | > 100 µM (inactive) | > 100 µM (inactive) | > 100 µM (inactive) | > 100 µM (inactive) | > 100 µM (inactive) | > 100 µM (inactive) | > 100 µM (inactive) | > 100 µM (inactive) | > 100 µM (inactive) | > 100 µM (inactive) | > 100 µM | > 100 µM (inactive) |
| N#Cc1nc(-c2ccco2)oc1N | > 10 µM (inactive) | > 10 µM (inactive) | > 10 µM (inactive) | > 10 µM (inactive) | > 10 µM (inactive) | > 10 µM (inactive) | > 10 µM (inactive) | > 10 µM (inactive) | > 10 µM (inactive) | > 10 µM (inactive) | > 10 µM (inactive) | > 10 µM (inactive) | > 10 µM (inactive) | > 10 µM (inactive) | > 10 µM (inactive) | > 10 µM (inactive) | > 10 µM (inactive) | > 10 µM (inactive) | > 10 µM | > 10 µM (inactive) |
| CCN(CC)c1ncnc2c1ncn2CCNC(CO)(CO)CO | > 100 µM (inactive) | > 100 µM (inactive) | > 100 µM (inactive) | > 100 µM (inactive) | > 100 µM (inactive) | > 100 µM (inactive) | > 100 µM (inactive) | > 100 µM (inactive) | > 100 µM (inactive) | > 100 µM (inactive) | > 100 µM (inactive) | > 100 µM (inactive) | > 100 µM (inactive) | > 100 µM (inactive) | > 100 µM (inactive) | > 100 µM (inactive) | > 100 µM (inactive) | > 100 µM (inactive) | > 100 µM | > 100 µM (inactive) |
| CCCSc1ccc2[nH]c(N3C(=O)/C(=C/c4ccco4)N=C3c3ccccc3)cc2c1 | > 50 µM (inactive) | 16.7 µM (inactive) | 27.6 µM (inactive) | 44 µM (inactive) | 19.6 µM (inactive) | 13.2 µM (inactive) | 27.8 µM (inactive) | 23.7 µM (inactive) | 19.3 µM (inactive) | > 50 µM (inactive) | – | > 50 µM (inactive) | > 50 µM (inactive) | 34.7 µM (inactive) | 18.3 µM (inactive) | – | 38.3 µM (inactive) | 11.9 µM (inactive) | 19.8 µM | 17.7 µM (inactive) |
| CCCCCCCC(=O)NS(=O)(=O)c1ccccc1 | > 100 µM (inactive) | > 100 µM (inactive) | > 100 µM (inactive) | > 100 µM (inactive) | > 100 µM (inactive) | 73.3 µM (inactive) | > 100 µM (inactive) | > 100 µM (inactive) | > 100 µM (inactive) | > 100 µM (inactive) | > 100 µM (inactive) | > 100 µM (inactive) | > 100 µM (inactive) | > 100 µM (inactive) | > 100 µM (inactive) | > 100 µM (inactive) | > 100 µM (inactive) | > 100 µM (inactive) | > 100 µM | > 100 µM (inactive) |
| Oc1cccc2ccc(Br)nc12 | > 100 µM (inactive) | 97.9 µM (inactive) | 51.6 µM (inactive) | > 100 µM (inactive) | > 100 µM (inactive) | > 100 µM (inactive) | > 100 µM (inactive) | > 100 µM (inactive) | 46.6 µM (inactive) | > 100 µM (inactive) | > 100 µM (inactive) | > 100 µM (inactive) | > 100 µM (inactive) | > 100 µM (inactive) | > 100 µM (inactive) | > 100 µM (inactive) | > 100 µM (inactive) | 36.2 µM (inactive) | > 100 µM | > 100 µM (inactive) |
